{"source": "ChEMBL document CHEMBL5154674", "about": "“ARN25068, a versatile starting point towards triple GSK-3β/FYN/DYRK1A inhibitors to tackle tau-related neurological disorders” (Eur J Med Chem, 2022)", "test_system": "U2OS", "assay": "Cytotoxic effect on human U2OS cells transfected with Tau0N4R-TM-tGFP at 25 to 100 uM by fluorescence based microscopy", "format": "toxicity, cell-based", "settings": "dose 25-100 µM", "data": [{"molecule": "c1ccc(CNc2nc(Nc3cc(C4CC4)[nH]n3)c3sccc3n2)cc1", "values": [{"measurement": "Activity", "result": "Toxic"}]}]}
